According to US20240382589A1, “Synergistic Inhibition of eIF5A and Notch Signaling in Intermediate Tregs” (The University of Toledo, priority 2022, published 2024):

Assays:
[1] = biological target: T1, deoxyhypusine synthase (DHS) (Homo sapiens, UniProt P49366); conditions: cited from earlier work
T1 sequence (P49366 1-369): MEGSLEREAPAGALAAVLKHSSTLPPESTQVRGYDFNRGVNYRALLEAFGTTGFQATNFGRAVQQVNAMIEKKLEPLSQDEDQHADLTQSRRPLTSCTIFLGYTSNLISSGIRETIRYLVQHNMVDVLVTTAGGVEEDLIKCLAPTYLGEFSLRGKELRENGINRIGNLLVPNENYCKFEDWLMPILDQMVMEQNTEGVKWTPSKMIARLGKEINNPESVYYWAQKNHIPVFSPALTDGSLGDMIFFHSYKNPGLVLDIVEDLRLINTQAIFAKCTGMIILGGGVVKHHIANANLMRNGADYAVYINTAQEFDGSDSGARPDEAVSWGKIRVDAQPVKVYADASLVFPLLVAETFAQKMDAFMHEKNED

[2] = test system: CD4, CD8 and CD25 T cells isolated from PLN of TID mice; assay: In vitro co-stimulation / CFSE proliferation of T cells from PLN of TID mice; format: cell-based, mouse
Description: Purified CD4, CD8, and CD25 cells were isolated from TID mice using the mice CD4 T Cell Isolation Kit (#130-104-454), CD8a+ T Cell Isolation Kit II (#130-095-236), and CD4+ CD25+ Regulatory T Cell Isolation Kit (Cat no: 130-091-041) following standard protocol. Briefly, after sacrificing the TID mice, pancreatic lymph nodes (PLN) were isolated and single cell suspensions were prepared. Non-CD4 T cells and non-CD8 T cells were isolated using magnetically labeled microbeads. Non-CD4 T cells were retained in the MACS column and non-touch enriched CD4 and CD8 cells were eluted from the column. Simultaneously CD25 positive cells were separated from the CD4 clute with anti-CD25PE microbeads with more than 90% purity. Single cell suspensions of CD4, CD8, and CD25^− T cells were stained with carboxyfluorescein succinimidyl ester (CFSE) to track the induced proliferation. Single cell suspensions of purified CD4, CD8, and CD25 T cells (CFSE-labeled) were co-stimulated with recombinant human GAD65 (rhGAD65) protein ([…]), GC7 (100 mM), anti-DLL4 ([…]), rhGAD65+GC7, rhGAD65+GC7+anti-DLL4, or CD3+CD28 stimulated for 4 days (n=7). CD4 T cells (CFSE-labeled) were further stained with fluorochrome-conjugated antibodies against mouse IL-17(clone 559502, PE), IFNg (clone 554413, APC), and forkhead box P3 (Foxp3) (clone MF23, Alexa Fluor@488, Alexa Fluor@647). In vitro proliferation assays were analyzed by FLOWJO V10 Beta software using fix ratio, fix CV, and fix background from unstimulated cells.

[3] = test system: anti-GAD65, anti-IA2 and anti-insulin autoantibodies; assay: Anti-GAD65, anti-IA2 and anti-insulin autoantibody ELISA in mouse serum; format: in vivo; conditions: TID mice; treatment with GC7 or anti-DLL4
Description: Anti-GAD65, anti-IA2, and anti-insulin autoantibodies were measured in mice serum using
an Anti-GAD65 ELISA kit (Kronus, Star, ID) according to the manufacturer's instructions. Mice anti-insulin antibodies were measured using a mouse insulin autoantibody (IAA) ELISA kit (Abbexa, catalog #abx053161. Abbexa LLC, Houston, TX, United States; with a positive predictive value range between 0.16 and 10 ng/ml). Anti-IA2 autoantibodies were also measured using a human IA2 autoantibody (IA2Ab) ELISA kit (Kronus, Star, ID) following the manufacturers' manual.

[4] = test system: TID mice and NOD mice; conditions: cited from earlier work

SMILES	IC50 [1] [µM]	Treg population (expression of CD25 and FOXP3 on CD3+ CD4 T cells) ([2]; GC7 (100 mM), 4 days)	replicative index of Treg cells (Treg peak) ([2]; GC7 (100 mM), CFSE)	proliferation index of CD8 T cells ([2]; compared to conventional stimulation with anti-(CD3+CD28)/rhGAD65)	GAD65 antibody titer [3]	adverse effect in previous in vivo studies [4]
C/C(=N\NC(=N)N)c1cc(NC(=O)CCCCCCCCC(=O)Nc2cc(/C(C)=N/NC(=N)N)cc(/C(C)=N/NC(=N)N)c2)cc(/C(C)=N/NC(=N)N)c1 [Semapimod]	~2000					
N=C(N)NCCCCCCCN [GC7, N1-guanyl-1,7-diaminoheptane]	0.017	significantly enriched	significant Treg peak	not significant	significantly reduced	did not reveal any significant adverse effect
